{"source": "patent US12661336B2", "about": "“Polymorphs of phenyl pyrrole aminoguandium salts” (SYNACT PHARMA APS, priority 2021, dated 2026)", "key": {"[1]": {"conditions": "40° C./75% RH for 24 hours", "procedure": "The resulting mixture was thermally cycled for 3 days between 40° C. and 5° C. (Ramp rate: 0.1° C./min with isothermal holds of 1 hour at 40° C. and 5° C.).\nThe resulting mixture was thermally cycled for 3 days between 40° C. and 5° C. (Ramp rate: 0.1° C./min with isothermal holds of 1 hour at 40° C. and 5° C.). Solids were isolated by centrifuge filtration and analysed wet by XRPD. Sample was dried at 40° C. under vacuum for 24 hours then reanalysed by XRPD.\nThe resulting mixture was thermally cycled for 3 days between 40° C. and 5° C. (Ramp rate: 0.1° C./min with isothermal holds of 1 hour at 40° C. and 5° C.). Solids were isolated by centrifuge filtration and analysed wet by XRPD."}, "[2]": {"conditions": "buffer solution pH 1.2, pH adjusted to 1.2 with concentrated hydrochloric acid, samples fully dissolved, HPLC", "procedure": "As a result, the pH was adjusted to 1.2 with concentrated hydrochloric acid in both solutions. Both sample preparations were diluted 500 times with the sample diluent (acetonitrile:water 1:1 v/v)."}, "[3]": {"experiment": "Thermodynamic solubility of AP1189 salts in 0.5 M and 0.2 M buffer solutions (Example 6, Tables 38a, 38b)", "conditions": "for XRPD analysis of residual solids from solubility experiment / Solubility (mM freebase): 0.5 M buffer; for Solubility (mM freebase): 24 h"}}, "note": "Counter-ions that a name gives are not always drawn. Like-named read-outs stand apart in the source and are kept apart here.", "data": [{"compound": "N=C(N)NN=CC=Cc1cccn1-c1ccccc1[N+](=O)[O-].O=S(=O)(O)NC1CCCCC1", "note": "[Cyclamic Acid Pattern 5, N-{3-[1-(2-nitrophenyl)-1H-pyrrol-2-yl]-allylidene}-aminoguanidinium cyclamate]", "values": [{"measurement": "XRPD diffractogram after storage", "setting": "[1]", "result": "consistent with pattern 5"}]}, {"compound": "CC(=O)O.N=C(N)NN=CC=Cc1cccn1-c1ccccc1[N+](=O)[O-]", "note": "[AP1189 acetate, N-{3-[1-(2-nitrophenyl)-1H-pyrrol-2-yl]-allylidene}-aminoguanidinium acetate]", "values": [{"measurement": "Determined concentration in pH 1.2 samples, pH 1.2 (time)", "setting": "[2]", "result": ">223", "unit": "mg/mL"}, {"measurement": "Determined concentration in pH 1.2 samples, pH 1.2 (time)", "setting": "[2]; time: acetate 5 h, succinate 0.5 h", "result": ">617 mM (5 h)"}, {"measurement": "XRPD analysis of residual solids from solubility experiment", "setting": "[3]; pH 1.2", "result": "a likely HCl salt (assigned as HCl Pattern 1) was formed"}, {"measurement": "XRPD analysis of residual solids from solubility experiment", "setting": "[3]; pH 4.5", "result": "remained"}, {"measurement": "solubility, comparison of salts (in words)", "setting": "[3]; 0.5 M buffers, succinate Pattern 1 compared with fumarate Pattern 1", "result": "highest solubility"}, {"measurement": "solubility at pH 1.2 (in words)", "setting": "[3]; pH 1.2", "result": "high solubility"}]}, {"compound": "N-{3-[1-(2-nitrophenyl)-1H-pyrrol-2-yl]-allylidene}-aminoguanidinium edisylate [Ethane-1,2-disulfonic Acid Pattern 5]", "values": [{"measurement": "XRPD diffractogram after storage", "setting": "[1]", "result": "consistent with pattern 1"}]}, {"compound": "N=C(N)N/N=C/C=C/c1cccn1-c1ccccc1[N+](=O)[O-]", "note": "[Fumarate Salt Pattern 1 (Form D)]", "values": [{"measurement": "Solubility (mM freebase)", "setting": "[3]; pH 1.2, thermodynamic solubility", "result": 7.84, "unit": "mM freebase"}, {"measurement": "Solubility (mM freebase)", "setting": "[3]; pH 4.5, thermodynamic solubility", "result": 1.64, "unit": "mM freebase"}]}, {"compound": "N-{3-[1-(2-nitrophenyl)-1H-pyrrol-2-yl]-allylidene}-aminoguanidine glutaric acid salt [Glutaric Acid Pattern 1]", "values": [{"measurement": "XRPD diffractogram after storage", "setting": "[1]", "result": "resulted in a new pattern by XRPD (Pattern 4)"}]}]}
